Measured values published in US8895047B2, “Combined fibrinolytic and antimicrobial catheter and uses thereof” (priority 2007, dated 2014).

Assays:
human urokinase enzyme = target: T1, human urokinase enzyme (Homo sapiens, UniProt P00749); experiment: uPA activity assay (chromogenic substrate) after incubation with antimicrobial agents; type: biochemical; settings: for Urokinase activity in the presence of antimicrobial agent: concentrations up to 10 μg/mL, 24 hours at 37° C. with 88 units (0.5 μg) uPA in PBS, FIGS. 2 and 3
T1 construct: purchased American Diagnostica
Method: To check the compatibility of urokinase (uPA) and chlorhexidine acetate (CHA), human urokinase enzyme (American Diagnostica) at different concentrations (0, 0.05, 0.5, and 1.0 μg/mL) was incubated with CHA at concentrations between 0-10 μg/mL for 24 hours at 37° C. in phosphate buffered saline (PBS). Subsequently, urokinase activity was measured using uPA Activity Assay Kit (Chemicon). Samples were incubated with an assay buffer and a chromogenic substrate for uPA resulting in the formation of a colored complex followed by reading the absorbance on a spectrophotometer at 405 nm. In a 96 well plate, different combinations of chlorhexidine (CHX), gentian violet (GV), minocycline and rifampin were incubated at concentrations of 0, 1, 10 μg/mL, for 24 hours at 37° C., with 88 units (0.5 μg) of uPA in PBS. Urokinase activity was measured using uPA Activity Assay Kit as described earlier.

S. epidermidis = experiment: Minimum inhibitory concentration of chlorhexidine acetate against S. epidermidis; type: cell-based
Method: FIG. 4. Chlorhexidine activity in the presence of urokinase. […] CHA MIC Control=urokinase in tris-buffered saline (TBS)+CHA+Mueller-Hinton broth (MHB); Growth Control=dimethyl sulfoxide (DMSO)+TBS+S. epidermidis+MHB; Negative Control=DMSO+TBS+MHB.
To determine if urokinase affects the antimicrobial efficacy of chlorhexidine, the following experiment was conducted. The minimum inhibitory concentration (MIC) of chlorhexidine acetate (CHA) against S. epidermidis is 0.5 ppm in the absence of urokinase. Absorbance above baseline on the plot in […] indicates growth of microbial organisms (i.e., inability to inhibit microbial growth). An increase in the MIC would be indicative of a reduction in the antimicrobial potency of CHA due to interference by Urokinase.

human streptokinase = target: T2, human streptokinase (Streptococcus dysgalactiae subsp. equisimilis, UniProt P00779); experiment: Streptokinase activity assay (S-2251 chromogenic substrate, plasminogen) after incubation with antimicrobial agents; type: biochemical; settings: any concentration up to 10 μg/mL, overnight at 37° C. with 16.5 units streptokinase; FIG. 7
T2 construct: purchased Sigma
Method: In a 96 well plate, different combinations of chlorhexidine (0, 1, 10 μg/mL) and gentian violet (0, 1, 10 μg/mL) were incubated overnight with 16.5 units of human streptokinase (Sigma) at 37° C., in 10 mM Tris-HCl buffer containing 0.1M NaCl and 1 mg/mL albumin. Streptokinase activity was measured using a chromogenic substrate S-2251 (Chromogenix). Samples were incubated with 0.6 mM S-2251 and 0.1 U/ml plasminogen (Sigma) for one hour. Hydrolysis of the substrate was measured at 405 nm and a standard curve was generated with the units plotted against the slope of the hydrolysis reaction.

human tPA = target: T3, human tPA (Homo sapiens, UniProt P00750); experiment: tPA activity assay (chromogenic substrate) after incubation with antimicrobial agents; type: biochemical; settings: concentrations up to 10 μg/mL, overnight at 37° C. with 50 units human tPA; FIGS. 5 and 6
T3 construct: purchased Sigma
Method: Different combinations of CHX, GV, minocycline and rifampin (0, 1, 10 μg/mL) were incubated overnight with 50 units of human tPA (Sigma) at 37° C., in buffer (30 mM Tris-HCl, 30 mM Imidazole, 130 mM NaCl, 1% protease free albumin). Samples were incubated with the chromogenic substrate (Sigma); tPA activity was determined by the hydrolysis of the substrate being measured continuously at 405 nm for 5 min at 50 seconds intervals. A standard curve was generated and the units plotted against the slope of the hydrolysis reaction.

T3 sequence (P00750 36-562): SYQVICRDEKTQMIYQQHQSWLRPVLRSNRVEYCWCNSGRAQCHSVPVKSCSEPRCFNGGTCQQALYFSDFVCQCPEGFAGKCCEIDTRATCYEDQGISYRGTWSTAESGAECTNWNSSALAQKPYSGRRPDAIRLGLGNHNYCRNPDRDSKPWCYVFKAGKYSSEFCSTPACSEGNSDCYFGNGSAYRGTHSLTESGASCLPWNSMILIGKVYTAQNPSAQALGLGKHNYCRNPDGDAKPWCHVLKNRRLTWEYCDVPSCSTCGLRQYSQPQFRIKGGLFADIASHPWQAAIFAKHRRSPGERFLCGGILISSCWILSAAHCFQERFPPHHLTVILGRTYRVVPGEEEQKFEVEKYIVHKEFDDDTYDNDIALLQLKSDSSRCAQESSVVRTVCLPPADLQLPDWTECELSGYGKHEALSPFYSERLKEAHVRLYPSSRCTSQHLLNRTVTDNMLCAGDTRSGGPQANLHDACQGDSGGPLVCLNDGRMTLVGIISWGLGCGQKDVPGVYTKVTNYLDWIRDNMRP
T2 sequence (P00779 27-440): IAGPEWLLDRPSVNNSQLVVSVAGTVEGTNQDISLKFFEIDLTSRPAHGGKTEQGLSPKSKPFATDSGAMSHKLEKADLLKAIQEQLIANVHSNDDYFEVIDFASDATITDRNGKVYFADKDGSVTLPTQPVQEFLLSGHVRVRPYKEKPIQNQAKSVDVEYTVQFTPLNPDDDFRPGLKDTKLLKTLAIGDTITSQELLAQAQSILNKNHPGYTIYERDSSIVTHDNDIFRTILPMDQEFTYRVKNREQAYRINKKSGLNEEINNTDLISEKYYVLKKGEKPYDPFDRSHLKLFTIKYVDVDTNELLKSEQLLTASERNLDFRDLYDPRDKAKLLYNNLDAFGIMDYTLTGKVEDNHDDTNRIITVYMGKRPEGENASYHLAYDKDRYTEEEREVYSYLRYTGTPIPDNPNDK

Urokinase activity in the presence of CHA (human urokinase enzyme; CHA 0-10 μg/mL with uPA 0-1.0 μg/mL, 24 hours at 37° C. in PBS, CHA:uPA ratio 0.05 or higher, FIG. 1) | minimum inhibitory concentration (MIC) (S. epidermidis; in the absence of urokinase) | MIC in the presence of Urokinase (S. epidermidis; presence of urokinase, FIG. 4) | Compound | Urokinase activity in the presence of antimicrobial agent (human urokinase enzyme) | streptokinase activity in the presence of antimicrobial agent (human streptokinase) | tPA activity in the presence of antimicrobial agent (human tPA)
not affected | 0.5 ppm | not affected | CC(=O)O.CC(=O)O.NC(=N\CCCCCC/N=C(N)/N=C(\N)Nc1ccc(Cl)cc1)/N=C(\N)Nc1ccc(Cl)cc1 [CHA, chlorhexidine acetate] | – | – | –
– | – | – | [H]/N=C(\N/C(=N/[H])NCCCCCCNC(=N)NC(=N)Nc1ccc(Cl)cc1)Nc1ccc(Cl)cc1 [CHX, chlorhexidine] | not adversely affected | unaffected | not affected
– | – | – | CN(C)c1ccc(C(=C2C=CC(=[N+](C)C)C=C2)c2ccc(N(C)C)cc2)cc1 [GV, gentian violet] | not adversely affected | unaffected | not affected
– | – | – | CO[C@H]1/C=C/O[C@@]2(C)Oc3c(C)c(O)c4c(O)c(c(/C=N/N5CCN(C)CC5)c(O)c4c3C2=O)NC(=O)/C(C)=C\C=C\[C@H](C)[C@H](O)[C@@H](C)[C@@H](O)[C@@H](C)[C@H](OC(C)=O)[C@@H]1C [rifampin] | not adversely affected | – | not affected
